# Source: US10844013B2, “Phenyl amino piperidine mTORC inhibitors and uses thereof” (Navitor Pharmaceuticals, Inc., priority 2016, dated 2020)
# Structures can show the parent of a compound that is named as a salt.
# How the values were obtained:
# [1] = system: pS6K1 (p-p70 S6 Kinase (Thr389)) in MCF-7 cells; assay: AlphaLISA Ultra pS6K1 assay; type: cell-based; details: Homo sapiens, MCF7, 2 h, 2 hours compound incubation
# In short: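 MCF-7 cells seeded 20–24 h, medium refreshed 2 h, then treated 2 h with compound (0.5% DMSO final). Lysates probed for Thr389-phosphorylated p70 S6K by AlphaLISA Ultra, 2 h acceptor then 2 h donor bead incubation, read on a multimode reader.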
# [2] = system: pAKT (p-Akt 1/2/3 (Ser473)) in MCF-7 cells; assay: AlphaLISA Ultra pAKT assay; type: cell-based; details: Homo sapiens, MCF7, 2 hours compound incubation
# In short: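 AlphaLISA read-out (2 h acceptor-bead, then 2 h donor-bead incubation) on thawed lysates of MCF-7 cells exposed to compounds for 2 h in 0.5% DMSO. Cells had been plated 20-24 h and given fresh medium 2 h before dosing.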
SMILES,IC50 [1],IC50 [2]
"Cc1cc(C)c(C(=O)N2CCN(c3ccccc3S(N)(=O)=O)CC2)cc1NC1CCN(c2ccccc2C)CC1 [I-108, 2-(4-(2,4-Dimethyl-5-(1-o-tolylpiperidin-4-ylamino)benzoyl)piperazin-1-yl)benzenesulfonamide]",1000 to 3000 nM,> 10000 nM
"N#Cc1ccccc1N1CCC(Nc2c(F)ccc(C(=O)N3CCN(c4ccccc4S(N)(=O)=O)CC3)c2F)CC1 [I-109, 2-(4-(3-(1-(2-cyanophenyl)piperidin-4-ylamino)-2,4-difluorobenzoyl)piperazin-1-yl)benzenesulfonamide]",3000 to 5000 nM,> 10000 nM
"Cc1cc(C)c(C(=O)N2CCN(c3ccccc3[S@](C)(=N)=O)CC2)nc1NC1CCN(c2ccccc2C#N)CC1 [I-110, (R)-2-(4-(3,5-Dimethyl-6-(4-(2-(S-methylsulfonimidoyl)phenyl)piperazine-1-carbonyl)pyridin-2-ylamino)piperidin-1-yl)benzonitrile]",10 to 1000 nM,> 10000 nM
"Cc1cc(C)c(C(=O)N2CCN(c3ccccc3C)[C@@H](CO)C2)cc1NC1CCN(c2ccccc2C#N)CC1 [I-112, (R)-2-(4-(5-(3-(Hydroxymethyl)-4-o-tolylpiperazine-1-carbonyl)-2,4-dimethylphenylamino)piperidin-1-yl)benzonitrile]",1000 to 3000 nM,> 10000 nM
"Cc1cc(F)c(C(=O)N2CCN(c3ccccc3S(N)(=O)=O)CC2)cc1NC1CCN(c2ccccc2C#N)CC1 [I-113, 2-(4-(5-(1-(2-Cyanophenyl)piperidin-4-ylamino)-2-fluoro-4-methylbenzoyl)piperazin-1-yl)benzenesulfonamide]",3000 to 5000 nM,> 10000 nM
"Cc1cc(C)c(C(=O)N2CCN(C(C)C)[C@@H](CO)C2)cc1NC1CCN(c2ccccc2C#N)CC1 [I-114, (R)-2-(4-(5-(3-(Hydroxymethyl)-4-isopropylpiperazine-1-carbonyl)-2,4-dimethylphenylamino)piperidin-1-yl)benzonitrile]",> 10000 nM,> 10000 nM
"Cc1cc(C)c(C(=O)N2CCN(c3ncccc3F)[C@@H](CO)C2)cc1NC1CCN(c2ccccc2C#N)CC1 [I-115, (R)-2-(4-(5-(4-(3-Fluoropyridin-2-yl)-3-(hydroxymethyl)piperazine-1-carbonyl)-2,4-dimethylphenylamino)piperidin-1-yl)benzonitrile]",1000 to 3000 nM,> 10000 nM
"Cc1cc(C)c(C(=O)N2CCN(c3ccc(F)cn3)[C@@H](CO)C2)cc1NC1CCN(c2ccccc2C#N)CC1 [I-116, (R)-2-(4-(5-(4-(5-Fluoropyridin-2-yl)-3-(hydroxymethyl)piperazine-1-carbonyl)-2,4-dimethylphenylamino)piperidin-1-yl)benzonitrile]",1000 to 3000 nM,> 10000 nM
"Cc1cc(C)c(C(=O)N2CCN(c3ccc(F)cn3)[C@H](CO)C2)cc1NC1CCN(c2ccccc2C#N)CC1 [I-117, (S)-2-(4-(5-(4-(5-fluoropyridin-2-yl)-3-(hydroxymethyl)piperazine-1-carbonyl)-2,4-dimethylphenylamino)piperidin-1-yl)benzonitrile]",10 to 1000 nM,> 10000 nM
Cc1cc(C)c(C(=O)N2CCN(c3ccccn3)C(C)(C)C2)cc1NC1CCN(c2ccccc2C#N)CC1 [I-118],1000 to 3000 nM,> 10000 nM
"Cc1cc(C)c(C(=O)N2CCN(c3ccccc3)C(C)(C)C2)cc1NC1CCN(c2ccccc2C#N)CC1 [I-119, 2-(4-(5-(3,3-Dimethyl-4-phenylpiperazine-1-carbonyl)-2,4-dimethylphenylamino)piperidin-1-yl)benzonitrile]",> 10000 nM,> 10000 nM
"Cc1ccc(C(=O)N2CCN(c3ncccc3S(N)(=O)=O)CC2)c(C)c1NC1CCN(c2ccccc2C#N)CC1 [I-120, 2-(4-(3-(1-(2-cyanophenyl)piperidin-4-ylamino)-2,4-dimethylbenzoyl)piperazin-1-yl)pyridine-3-sulfonamide]",10 to 1000 nM,> 10000 nM
"Cc1cc(C)c(C(=O)N2CCN(c3ncccc3S(N)(=O)=O)[C@H](C)C2)cc1NC1CCN(c2ccccc2C#N)CC1 [I-122, (R)-2-(4-(5-(1-(2-Cyanophenyl)piperidin-4-ylamino)-2,4-dimethylbenzoyl)-2-methylpiperazin-1-yl)pyridine-3-sulfonamide]",10 to 1000 nM,> 10000 nM
"CNC(=O)c1cccnc1N1CCN(C(=O)c2cc(NC3CCN(c4ccccc4C#N)CC3)c(C)cc2C)C[C@H]1C [I-123, (R)-2-(4-(5-(1-(2-Cyanophenyl)piperidin-4-ylamino)-2,4-dimethylbenzoyl)-2-methylpiperazin-1-yl)-N-methylnicotinamide]",1000 to 3000 nM,> 10000 nM
"Cc1ccc(C(=O)N2CCN(c3ccccc3S(N)(=O)=O)CC2)c(C)c1NC1CCN(c2ccccc2C#N)CC1 [I-124, 2-[4-[3-[[1-(2-cyanophenyl)-4-piperidyl]amino]-2,4-dimethyl-benzoyl]piperazin-1-yl]benzenesulfonamide]",10 to 1000 nM,> 10000 nM
"N#Cc1ccccc1N1CCC(Nc2cc(C(=O)N3CCN(c4ccccc4S(N)(=O)=O)CC3)c(Cl)cc2Cl)CC1 [I-125, 2-(4-(2,4-dichloro-5-(1-(2-cyanophenyl)piperidin-4-ylamino)benzoyl)piperazin-1-yl)benzenesulfonamide]",> 10000 nM,> 10000 nM
"COc1cc(C)c(C(=O)N2CCN(c3ccccc3S(N)(=O)=O)CC2)cc1NC1CCN(c2ccccc2C#N)CC1 [I-127, 2-(4-(5-(1-(2-Cyanophenyl)piperidin-4-ylamino)-4-methoxy-2-methylbenzoyl)piperazin-1-yl)benzenesulfonamide]",3000 to 5000 nM,> 10000 nM

# Results, then the compound that gave them:
IC50 [1],IC50 [2],SMILES
1000 to 3000 nM,> 10000 nM,"Cc1cccc(N2CCC(Nc3cc(C(=O)N4CCN(c5ccccc5S(N)(=O)=O)CC4)c(C)cc3C)CC2)c1 [I-129, 2-(4-(2,4-Dimethyl-5-(1-m-tolylpiperidin-4-ylamino)benzoyl)piperazin-1-yl)benzenesulfonamide]"
> 10000 nM,> 10000 nM,"Cc1cc(C)c(C(=O)N2CCN(c3ccccc3S(N)(=O)=O)CC2)cc1NC1CCN(c2ccccc2C#N)C1 (stereo not shown) [I-131, 2-(4-(5-(1-(2-cyanophenyl)pyrrolidin-3-ylamino)-2,4-dimethylbenzoyl)piperazin-1-yl)benzenesulfonamide]"
1000 to 3000 nM,> 10000 nM,"Cc1cc(C)c(C(=O)N2CCN(c3ccccc3S(N)(=O)=O)CC2)cc1NC1C2CN(c3ccccc3C#N)CC21 (stereo not shown) [I-132, 2-(4-(5-(3-(2-Cyanophenyl)-3-azabicyclo[3.1.0]hexan-6-ylamino)-2,4-dimethylbenzoyl)piperazin-1-yl)benzenesulfonamide]"
10 to 1000 nM,> 10000 nM,"Cc1cc(C)c(C(=O)N2CCN(c3ccccc3)C(CN)C2)c(C)c1NC1CCN(c2ccccc2C#N)CC1 (stereo not shown) [I-135, 2-[4-({3-[3-(Aminomethyl)-4-phenylpiperazine-1-carbonyl]-2,4,6-trimethylphenyl}amino)piperidin-1-yl]benzonitrile; bis(formic acid) salt]"
10 to 1000 nM,> 10000 nM,"Cc1cc(C)c(C(=O)N2CC(=O)N(c3ccc(F)c(F)c3)[C@H](CO)C2)c(C)c1NC1CCN(c2ccccc2C#N)CC1 [I-136, 2-[4-({3-[(3S)-4-(3,4-difluoro-phenyl)-3-(hydroxy-methyl)-5-oxopiperazine-1-carbonyl]-2,4,6-trimethyl-phenyl}amino)piperidin-1-yl]benzonitrile]"
10 to 1000 nM,> 10000 nM,"Cc1cc(C)c(C(=O)N2CCN(c3ccccc3)[C@H](CN)C2)c(C)c1NC1CCN(c2ccccc2C#N)CC1 [I-137, 2-[4-({3-[(3R)-3-(Aminomethyl)-4-phenylpiperazine-1-carbonyl]-2,4,6-trimethylphenyl}amino)piperidin-1-yl]benzonitrile]"
10 to 1000 nM,> 10000 nM,"Cc1cc(C)c(C(=O)N2CCN(c3ccccc3)C(C(N)=O)C2)c(C)c1NC1CCN(c2ccccc2C#N)CC1 (stereo not shown) [I-139, 4-(3-{[1-(2-cyanophenyl)piperidin-4-yl]amino}-2,4,6-trimethyl-benzoyl)-1-phenyl-piperazine-2-carboxamide]"
10 to 1000 nM,> 10000 nM,"Cc1cc(C)c(C(=O)N2CCN(c3cccnn3)[C@H](CO)C2)c(C)c1NC1CCN(c2ccccc2C#N)CC1 [I-140, 2-[4-({3-[(3S)-3-(hydroxy-methyl)-4-(pyridazin-3-yl)piperazine-1-carbonyl]-2,4,6-trimethyl-phenyl}amino)piperidin-1-yl] benzonitrile]"
10 to 1000 nM,> 10000 nM,"Cc1cc(C)c(C(=O)N2CCN(c3ccccc3)C(C(N)=O)C2)c(C)c1NC1CCN(c2ccc(F)cc2C#N)CC1 (stereo not shown) [I-142, 4-(3-{[1-(2-cyano-4-fluorophenyl)piperidin-4-yl]amino}-2,4,6-trimethyl-benzoyl)-1-phenyl-piperazine-2-carboxamide]"
10 to 1000 nM,> 10000 nM,"Cc1cc(C)c(C(=O)N2CCN(c3ccccn3)C(=O)C2)c(C)c1NC1CCN(c2ccc(F)cc2C#N)CC1 [I-143, 5-fluoro-2-[4-({2,4,6-trimethyl-3-[3-oxo-4-(pyridin-2-yl)piperazine-1-carbonyl]phenyl}amino)piperidin-1-yl] benzonitrile]"
10 to 1000 nM,> 10000 nM,"Cc1cc(C)c(C(=O)N2CCN(c3ccc(F)cc3)C(C(N)=O)C2)c(C)c1NC1CCN(c2ccc(F)cc2C#N)CC1 (stereo not shown) [I-144, 4-(3-{[1-(2-cyano-4-fluorophenyl)piperidin-4-yl]amino}-2,4,6-trimethyl-benzoyl)-1-(4-fluorophenyl) piperazine-2-carboxamide]"
10 to 1000 nM,> 10000 nM,"Cc1cc(C)c(C(=O)N2CCN(c3ccccc3)[C@H](CO)C2)c(C)c1NC1CCN(c2ccc(F)cn2)CC1 [I-145, [(2S)-4-(3-{[1-(5-fluoropyridin-2-yl)piperidin-4-yl]amino}-2,4,6-trimethyl-benzoyl)-1-phenyl-piperazin-2-yl]MeOH]"
